In US20230094922A1, “METHODS OF THERAPEUTIC PROGNOSTICATION” (GENETIKAPLUS LTD., priority 2020, published 2023):

System: iPSC-derived cortical neurons
Test: Dendritic spine length analysis, confocal imaging
Format: cell-based, human
Experimental: FIG. 8. Average dendritic spine length. Dendritic spine length was analyzed using confocal microscopy in samples treated with Bupropion. For imaging of dendritic spines, images were acquired using the Nikon Confocal A1R with a 60× objective and a 2× digital zoom in z-stacks. Analysis was performed using Neurolucida software. FIGS. 9A-9B. Average dendritic spine length in specific spine types. […] For imaging of dendritic spines, images were acquired using the Nikon Confocal A1R with a 60× objective and a 2× digital zoom in z-stacks. Analysis was performed using Neurolucida software. iPSC differentiation into neurons-iPSCs were seeded at a density of 3×10^6 cells/well on a hESC-qualified Matrigel pre-coated 6-well plate and incubated at 37° C., 5% CO2 overnight. Differentiation was initiated the following day (day 0) after verifying that 100% confluency was reached. Differentiation media was added daily according to the following order: […]7 (day 15 onward) similar to a previously published protocol developed by for rapid differentiation to cortical neurons. The components of the described media, Q1-7, are provided in Appendix 1. Cells were assessed for differentiation efficiency and cell death on a daily basis. On day 9, differentiated neurons were re-plated on either 96-well plates (destined for staining) or 12-well plates (destined for RNA extraction) that were coated with 15 μg/mL Poly-ornithine diluted in PBS (overnight incubation at 37° C.), followed by 1 μg/mL Laminin and 2 μg/mL Fibronectin diluted in PBS (overnight incubation at 37° C.): Neurons were first rinsed with pre-warmed PBS and 1 ml/well of Accutase was added for 35 minutes at 37° C., 5% CO2. DNAse1 (0.5 mg/mL) was then added for 10 additional minutes. 3 ml of pre-warmed Neurobasal media was added to each well and neurons were gently collected using a 5 ml […]. Wells were then verified for the presence of any remaining neurons. Neurons were spun down and resuspended in Q6 media. Neurons were seeded at a density of 150,000 cells/cm^2 placed back at 37° C. Following four hours of incubation, media was changed to Q6 media (150 μl per 96-well and 1 ml per 12-well). […] For dendritic arborization analysis, pre/post-synaptic markers and colocalization analysis; α-Syn, PSD95 and MAP2 primary antibodies were used. Following washes, fluorophore-coupled secondary antibodies were incubated in the blocking solution for 1 hour at room temperature. The cells were counter-stained with 4',6-diamidino-2-phenylindole (DAPI) for nuclei detection for 15 minutes at room temperature followed by washes with PBS. […] Neuronal and synaptic morphology was assessed using the Neurolucida software, pre- and post-synaptic marker analysis was performed using CellProfiler and total dendritic length was measured using Fiji software.

CC(NC(C)(C)C)C(=O)c1cccc(Cl)c1 (stereo not drawn) [Bupropion, 3-Chloro-N-tert-butyl-β-keto-α-methylphenethylamin]
total dendritic spine length (average), after treatment (cells derived from non-responders): no difference
total dendritic spine length (average), after treatment (cells derived from responders): significant increase
specific spine types (mushroom, stubby, filopodia, thin), after treatment (cells from non-responders): increase in the number of stubby spines
specific spine types (mushroom, stubby, filopodia, thin), after treatment (responder's cells): significant increase in the number of mushroom, stubby and thin spines
